Source: US20160244437A1, “SUBSTITUTED PHENYLALANINE DERIVATIVES” (BAYER PHARMA AKTIENGESELLSCHAFT, priority 2013, published 2016)
Structures can show the parent of a compound that is named as a salt.

Assays:
human factor XIa = molecular target: T1, human factor XIa (Homo sapiens, UniProt P03951); experiment: Measurement of FXIa inhibition (fluorogenic peptide substrate Boc-Glu(OBzl)-Ala-Arg-AMC); assay type: biochemical; settings: factor XIa from Kordia 0.45 nM, 15 min pre-incubation, 30 min at 22° C., fluorescence
T1 construct: purchased Kordia

human and animal plasma = experiment: Determination of anticoagulatory activity: activated partial thromboplastin time (aPTT) in plasma; settings: concentration of test substance which brings about a 1.5-fold extension of the aPTT; plasma in vitro, C.K. Prest kit
Experimental: The anticoagulatory activity of the test substances is determined in vitro in human and animal plasma (for example mouse, rat, rabbit, pig and dog plasma). To this end, blood is drawn off in a mixing ratio of sodium citrate/blood of 1:9 using a 0.11 molar sodium citrate solution as receiver. Immediately after the blood has been drawn off, it is mixed thoroughly and centrifuged at about 4000 g for 15 minutes. The supernatant is pipetted off.
The activated partial thromboplastin time (aPTT) is determined in the presence of varying concentrations of test substance or the corresponding solvent using a commercial test kit (C.K. Prest from Diagnostica Stago). The test compounds are incubated with the plasma and the PTT reagent (cephalin, kaolin) at 37° C. for 3 minutes. Coagulation is then started by addition of a 25 mM aqueous calcium chloride solution, and the time when coagulation occurs is determined. The concentration of test substance which brings about a 1.5-fold extension of the aPTT is determined.

T1 sequence (P03951 388-625 limits assumed): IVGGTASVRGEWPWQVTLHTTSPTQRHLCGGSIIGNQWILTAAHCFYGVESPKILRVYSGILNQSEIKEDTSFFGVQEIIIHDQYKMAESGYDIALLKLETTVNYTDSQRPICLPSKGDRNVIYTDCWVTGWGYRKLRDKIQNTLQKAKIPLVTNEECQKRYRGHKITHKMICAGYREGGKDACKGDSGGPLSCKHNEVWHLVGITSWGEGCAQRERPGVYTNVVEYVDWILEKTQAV
T1 sequence (P03951 19-387 partner limits assumed): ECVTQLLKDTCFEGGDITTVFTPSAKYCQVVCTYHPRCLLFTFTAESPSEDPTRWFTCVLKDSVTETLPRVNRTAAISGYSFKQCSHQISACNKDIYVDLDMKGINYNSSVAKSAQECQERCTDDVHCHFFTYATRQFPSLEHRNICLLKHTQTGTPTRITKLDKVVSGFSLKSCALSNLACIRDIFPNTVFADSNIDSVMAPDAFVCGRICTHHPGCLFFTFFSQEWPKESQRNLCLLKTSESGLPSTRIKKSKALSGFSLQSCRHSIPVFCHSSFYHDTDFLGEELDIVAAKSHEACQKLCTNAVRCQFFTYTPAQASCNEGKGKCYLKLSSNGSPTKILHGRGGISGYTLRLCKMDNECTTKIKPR

| Structure (SMILES) | IC50 (human factor XIa) | aPTT (human and animal plasma) |
| --- | --- | --- |
| Cc1cc(C(=O)NC2C3CNCC32)ccc1-c1cccc(C[C@H](NC(=O)C2CCC(CN)CC2)C(=O)Nc2ccc(-c3nnn[nH]3)cc2)c1 (stereo partly drawn) [Example 33, 3′-[(2S)-2-({[trans-4-(Aminomethyl)cyclohexyl]carbonyl}amino)-3-oxo-3-{[4-(1H-tetrazol-5-yl)phenyl]amino}propyl]-N-(3-azabicyclo[3.1.0]hex-6-yl)-2-methylbiphenyl-4-carboxamide hydrochloride] | 7.6 nM | 0.08 µmol/L |
| Cc1ccc(S(=O)(=O)N2CCCC2)cc1-c1cccc(C[C@H](NC(=O)[C@H]2CC[C@H](CN)CC2)C(=O)Nc2ccc(-c3noc(=O)[nH]3)cc2)c1 [Example 36, trans-4-(Aminomethyl)-N-[(2S)-3-[2′-methyl-5′-(pyrrolidin-1-ylsulphonyl)biphenyl-3-yl]-1-oxo-1-{[4-(5-oxo-4,5-dihydro-1,2,4-oxadiazol-3-yl)phenyl]amino}propan-2-yl]cyclohexanecarboxamide hydrochloride] | 2.2 nM | 0.12 µmol/L |
| NC[C@H]1CC[C@H](C(=O)N[C@@H](Cc2cccc(-c3ccc(C(=O)NCCN4CCCCC4)cc3)c2)C(=O)Nc2ccc(-c3nnn[nH]3)cc2)CC1 [Example 37, 3′-[(2S)-2-({[trans-4-(Aminomethyl)cyclohexyl]carbonyl}amino)-3-oxo-3-{[4-(1H-tetrazol-5-yl)phenyl]amino}propyl]-N-[2-(piperidin-1-yl)ethyl]biphenyl-4-carboxamide hydrochloride] | 5.6 nM | 0.19 µmol/L |
| NC[C@H]1CC[C@H](C(=O)N[C@@H](Cc2cccc(-c3cc(C(N)=O)ccc3Cl)c2)C(=O)Nc2ccc(-c3nnn[nH]3)cc2)CC1 [Example 38, 3′-[(2S)-2-({[trans-4-(Aminomethyl)cyclohexyl]carbonyl}amino)-3-oxo-3-{[4-(1H-tetrazol-5-yl)phenyl]amino}propyl]-6-chlorobiphenyl-3-carboxamide hydrochloride] | 4.8 nM | 0.2 µmol/L |
| CCN(CC)CCNC(=O)c1cccc(-c2cccc(C[C@H](NC(=O)[C@H]3CC[C@H](CN)CC3)C(=O)Nc3ccc(-c4nnc(Cl)[nH]4)cc3)c2)c1 [Example 40, 3′-[(2S)-2-({[trans-4-(Aminomethyl)cyclohexyl]carbonyl}amino)-3-{[4-(3-chloro-4H-1,2,4-triazol-5-yl)phenyl]amino}-3-oxopropyl]-N-[2-(diethylamino)ethyl]biphenyl-3-carboxamide hydrochloride] | 8.3 nM | 0.19 µmol/L |
| NC[C@H]1CC[C@H](C(=O)N[C@@H](Cc2cccc(-c3ccc(C(=O)NCCN4CCCC4)cc3)c2)C(=O)Nc2ccc(-c3nnn[nH]3)cc2)CC1 [Example 41, 3′-[(2S)-2-({[trans-4-(Aminomethyl)cyclohexyl]carbonyl}amino)-3-oxo-3-{[4-(1H-tetrazol-5-yl)phenyl]amino}propyl]-N-[2-(pyrrolidin-1-yl)ethyl]biphenyl-4-carboxamide hydrochloride] | 8.4 nM | 0.32 µmol/L |
| CCN(CC)CCNC(=O)c1ccc(-c2cccc(C[C@H](NC(=O)[C@H]3CC[C@H](CN)CC3)C(=O)Nc3ccc(-c4nnn[nH]4)cc3)c2)cc1 [Example 42, 3′-[(2S)-2-({[trans-4-(Aminomethyl)cyclohexyl]carbonyl}amino)-3-oxo-3-{[4-(1H-tetrazol-5-yl)phenyl]amino}propyl]-N-[2-(diethylamino)ethyl]biphenyl-4-carboxamide hydrochloride] | 11 nM | 0.35 µmol/L |
| Cc1ccc(S(=O)(=O)N(C)C)cc1-c1cccc(C[C@H](NC(=O)[C@H]2CC[C@H](CN)CC2)C(=O)Nc2ccc3[nH]c(=O)[nH]c3c2)c1 [Example 44, trans-4-(Aminomethyl)-N-{(2S)-3-[5′-(dimethylsulphamoyl)-2′-methylbiphenyl-3-yl]-1-oxo-1-[(2-oxo-2,3-dihydro-1H-benzimidazol-5-yl)amino]propan-2-yl}cyclohexanecarboxamide hydrochloride] | 13 nM | 0.28 µmol/L |
| CON(C)C(=O)c1ccc(F)c(-c2cccc(C[C@H](NC(=O)[C@H]3CC[C@H](CN)CC3)C(=O)Nc3ccc(-c4nnn[nH]4)cc3)c2)c1 [Example 45, 3′-[(2S)-2-({[trans-4-(Aminomethyl)cyclohexyl]carbonyl}amino)-3-oxo-3-{[4-(1H-tetrazol-5-yl)phenyl]amino}propyl]-6-fluoro-N-methoxy-N-methylbiphenyl-3-carboxamide hydrochloride] | 5.8 nM | 0.3 µmol/L |
| Cc1ccc(C[C@H](NC(=O)[C@H]2CC[C@H](CN)CC2)C(=O)Nc2ccc(-c3nnn[nH]3)cc2)cc1-c1ccc(C(=O)NC2CCNCC2)cc1 [Example 49, 5′-[(2S)-2-({[trans-4-(Aminomethyl)cyclohexyl]carbonyl}amino)-3-oxo-3-{[4-(1H-tetrazol-5-yl)phenyl]amino}propyl]-2′-methyl-N-(piperidin-4-yl)biphenyl-4-carboxamide hydrochloride] | 21 nM | 0.47 µmol/L |
| NC[C@H]1CC[C@H](C(=O)N[C@@H](Cc2cccc(-c3ccc(C(=O)NC4CCNCC4)cc3)c2)C(=O)Nc2ccc3cn[nH]c3c2)CC1 [Example 51, 3′-[(2S)-2-({[trans-4-(Aminomethyl)cyclohexyl]carbonyl}amino)-3-(1H-indazol-6-ylamino)-3-oxopropyl]-N-(piperidin-4-yl)biphenyl-4-carboxamide hydrochloride] | 36 nM | 0.33 µmol/L |
| Cc1ccc(S(=O)(=O)N2CCOCC2)cc1-c1cccc(C[C@H](NC(=O)[C@H]2CC[C@H](CN)CC2)C(=O)Nc2ccc(-c3noc(=O)[nH]3)cc2)c1 [Example 52, trans-4-(Aminomethyl)-N-[(2S)-3-[2′-methyl-5′-(morpholin-4-ylsulphonyl)biphenyl-3-yl]-1-oxo-1-{[4-(5-oxo-4,5-dihydro-1,2,4-oxadiazol-3-yl)phenyl]amino}propan-2-yl]cyclohexanecarboxamide hydrochloride] | 1.8 nM | 0.06 µmol/L |

Further lines, with some results ahead:

| IC50 (human factor XIa) | Structure (SMILES) | aPTT (human and animal plasma) |
| --- | --- | --- |
| 6.8 nM | CC(C)N1CCC(NC(=O)c2cccc(-c3cccc(C[C@H](NC(=O)[C@H]4CC[C@H](CN)CC4)C(=O)Nc4ccc(-c5nnn[nH]5)cc4)c3)c2)CC1 [Example 32, 3′-[(2S)-2-({[trans-4-(Aminomethyl)cyclohexyl]carbonyl}amino)-3-oxo-3-{[4-(1H-tetrazol-5-yl)phenyl]amino}propyl]-N-[1-(propan-2-yl)piperidin-4-yl]biphenyl-3-carboxamide hydrochloride] | 0.18 µmol/L |
| 8.6 nM | CCN(CC)CCNC(=O)c1cccc(-c2cccc(C[C@H](NC(=O)[C@H]3CC[C@H](CN)CC3)C(=O)Nc3ccc(-c4nnn[nH]4)cc3)c2)c1 [Example 34, 3′-[(2S)-2-({[trans-4-(Aminomethyl)cyclohexyl]carbonyl}amino)-3-oxo-3-{[4-(1H-tetrazol-5-yl)phenyl]amino}propyl]-N-[2-(diethylamino)ethyl]biphenyl-3-carboxamide hydrochloride] | 0.26 µmol/L |
| 8.9 nM | CN(C)CCNC(=O)c1cccc(-c2cccc(C[C@H](NC(=O)[C@H]3CC[C@H](CN)CC3)C(=O)Nc3ccc(-c4nnn[nH]4)cc3)c2)c1 [Example 39, 3′-[(2S)-2-({[trans-4-(Aminomethyl)cyclohexyl]carbonyl}amino)-3-oxo-3-{[4-(1H-tetrazol-5-yl)phenyl]amino}propyl]-N-[2-(dimethylamino)ethyl]biphenyl-3-carboxamide hydrochloride] | 0.22 µmol/L |
| 5.2 nM | CN(C)C(=O)c1cccc(-c2cccc(C[C@H](NC(=O)[C@H]3CC[C@H](CN)CC3)C(=O)Nc3ccc(-c4nnn[nH]4)cc3)c2)c1 [Example 43, 3′-[(2S)-2-({[trans-4-(Aminomethyl)cyclohexyl]carbonyl}amino)-3-oxo-3-{[4-(1H-tetrazol-5-yl)phenyl]amino}propyl]-N,N-dimethylbiphenyl-3-carboxamide hydrochloride] | 0.26 µmol/L |
| 7.9 nM | CN1CCN(C(=O)c2ccc(-c3cccc(C[C@H](NC(=O)[C@H]4CC[C@H](CN)CC4)C(=O)Nc4ccc(-c5nnn[nH]5)cc4)c3)cc2)CC1 [Example 46, trans-4-(Aminomethyl)-N-[(2S)-3-{4′-[(4-methylpiperazin-1-yl)carbonyl]biphenyl-3-yl}-1-oxo-1-{[4-(1H-tetrazol-5-yl)phenyl]amino}propan-2-yl]cyclohexanecarboxamide hydrochloride] | 0.32 µmol/L |
| 5.2 nM | NC[C@H]1CC[C@H](C(=O)N[C@@H](Cc2cccc(-c3cccc(C(=O)N4CCOCC4)c3)c2)C(=O)Nc2ccc(-c3nnn[nH]3)cc2)CC1 [Example 47, trans-4-(Aminomethyl)-N-[(2S)-3-[3′-(morpholin-4-ylcarbonyl)biphenyl-3-yl]-1-oxo-1-{[4-(1H-tetrazol-5-yl)phenyl]amino}propan-2-yl]cyclohexanecarboxamide hydrochloride] | 0.34 µmol/L |
| 6.9 nM | NC[C@H]1CC[C@H](C(=O)N[C@@H](Cc2cccc(-c3ccc(C(=O)N4CCN(CCO)CC4)cc3)c2)C(=O)Nc2ccc(-c3nnn[nH]3)cc2)CC1 [Example 48, trans-4-(Aminomethyl)-N-[(2S)-3-(4′-{[4-(2-hydroxyethyl)piperazin-1-yl]carbonyl}biphenyl-3-yl)-1-oxo-1-{[4-(1H-tetrazol-5-yl)phenyl]amino}propan-2-yl]cyclohexanecarboxamide hydrochloride] | 0.44 µmol/L |
